Conditions: in isobutyl acetate

O=C(O)c1ccc(C(=O)O)cc1
Conditions | solubility (mole fraction)
305.15 K | 2.38e-05
308.15 K | 2.57e-05
313.15 K | 3.22e-05
318.15 K | 3.41e-05
323.15 K | 3.86e-05
328.15 K | 5.78e-05
333.15 K | 7.07e-05
338.15 K | 8.25e-05
343.15 K | 8.91e-05
348.15 K | 0.000104

O=C(O)c1cccc(C(=O)O)c1
Conditions | solubility (mole fraction)
308.15 K | 0.000352
313.15 K | 0.000388
318.15 K | 0.000438
323.15 K | 0.000507
328.15 K | 0.000691
333.15 K | 0.000917
338.15 K | 0.0013
343.15 K | 0.00166
348.15 K | 0.00201
353.15 K | 0.00221

O=C(O)c1ccccc1C(=O)O
Conditions | solubility (mole fraction)
300.68 K | 0.0011
302.37 K | 0.0012
304.42 K | 0.0012
309.58 K | 0.0016
312.72 K | 0.0022
317.36 K | 0.0026
326.85 K | 0.0032
331.86 K | 0.0037
335.27 K | 0.005
340.04 K | 0.0062
342.69 K | 0.0077
348.7 K | 0.0092

O=C(O)c1ccccc1
Conditions | solubility (mole fraction)
299.73 K | 0.14
302.46 K | 0.149
307.34 K | 0.178
313.61 K | 0.208
322.93 K | 0.254
328.98 K | 0.293
332.24 K | 0.311
334.34 K | 0.325
335.58 K | 0.337
336.03 K | 0.338
337.33 K | 0.349
337.67 K | 0.351
338.76 K | 0.358
339.37 K | 0.362
339.86 K | 0.369
341.48 K | 0.379
342.69 K | 0.39
343.67 K | 0.399

Cc1ccc(C(=O)O)cc1
Conditions | solubility (mole fraction)
300.19 K | 0.0328
303.04 K | 0.0338
306.43 K | 0.0356
310.28 K | 0.0421
312.7 K | 0.0434
315.36 K | 0.0475
319.97 K | 0.0525
323.16 K | 0.0573
324.84 K | 0.0612
325.76 K | 0.0653
329.67 K | 0.0692
332.48 K | 0.0735
333.91 K | 0.0774
335.96 K | 0.0813
337.49 K | 0.0848
339.46 K | 0.0885
341.07 K | 0.0918
342.68 K | 0.0954
344.69 K | 0.0994
345.82 K | 0.103
347.26 K | 0.107
348.41 K | 0.11
